Measurements reported in the supplement of paper PMC6045584.
± gives the standard deviation of the averaged measurements.

Assays:
[1] = compound: C[C@@H]1CN(CC(=O)Nc2ccc3c(c2)Cc2cccc(-c4cc(=O)cc(N5CCOCC5)o4)c2S3)C[C@H](C)O1; assay: surviving fraction relative to DMSO-only wells; higher = less growth inhibition; conditions: exposure time: 5 days
Summary of the method: (§1)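 Tumour cell lines in log phase were plated in 384-well plates at 250–500 cells per well, then, after 24 hours, exposed continuously for five days to inhibitors at 0.5, 1, 5, 10, 50, 100, 500 and 1000 nM. Viability came from CellTiter-Glo luminescence, and surviving fraction is that signal normalised to the median of DMSO-only wells. Plates were read after 10 minutes at room temperature, and each line, screened three times, was kept only when replicate Pearson r was >0.7 and median Z' was >0.3.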

[2] = compound: COc1cc2nccc(Oc3ccc(NC(=O)C4(C(=O)Nc5ccc(F)cc5)CC4)cc3)c2cc1OC [CABOZANTINIB]; assay: as above; conditions: exposure time: 5 days
Summary of the method: as §1

Row | Test System | surviving fraction ([1]; 0.5 nM) | surviving fraction ([1]; 1 nM) | surviving fraction ([1]; 5 nM) | surviving fraction ([1]; 10 nM) | surviving fraction ([1]; 50 nM) | surviving fraction ([1]; 100 nM) | surviving fraction ([1]; 500 nM) | surviving fraction ([1]; 1000 nM) | surviving fraction ([2]; 0.5 nM) | surviving fraction ([2]; 1 nM) | surviving fraction ([2]; 5 nM) | surviving fraction ([2]; 10 nM) | surviving fraction ([2]; 50 nM) | surviving fraction ([2]; 100 nM) | surviving fraction ([2]; 500 nM) | surviving fraction ([2]; 1000 nM)
1 | 22RV1 PROSTATE | 1.07 ± 0.068 | 1.07 ± 0.021 | 1.02 ± 0.045 | 1.04 ± 0.044 | 1.12 ± 0.07 | 1.12 ± 0.074 | 1.08 ± 0.09 | 1.08 ± 0.031 | 0.946 ± 0.039 | 1.03 ± 0.018 | 0.992 ± 0.056 | 1 ± 0.13 | 1.03 ± 0.06 | 1.08 ± 0.15 | 1.07 ± 0.095 | 0.909 ± 0.18
2 | 93VU HEADNECK | 0.955 ± 0.062 | 1.09 ± 0.041 | 1.07 ± 0.069 | 1.05 ± 0.029 | 0.968 ± 0.024 | 0.943 ± 0.067 | 0.893 ± 0.045 | 0.836 ± 0.035 | 0.824 ± 0.084 | 0.841 ± 0.026 | 0.916 ± 0.028 | 1.01 ± 0.14 | 1.02 ± 0.084 | 0.967 ± 0.05 | 0.777 ± 0.042 | 0.71 ± 0.051
3 | 143B BONE | 1.03 ± 0.034 | 0.994 ± 0.016 | 1.02 | 1.02 ± 0.03 | 1.03 ± 0.035 | 1.01 ± 0.013 | 1 ± 0.011 | 0.9405 ± 0.0064 | 1.07 ± 0.08 | 1.03 ± 0.023 | 1.02 ± 0.013 | 1.05 ± 0.02 | 1.01 ± 0.038 | 1.09 ± 0.059 | 1.048 ± 0.0092 | 1.06 ± 0.031
4 | A549 LUNG | 1.05 ± 0.049 | 1.05 ± 0.025 | 1.08 ± 0.02 | 1.08 ± 0.021 | 1.07 ± 0.012 | 1.098 ± 0.0099 | 1.1 ± 0.016 | 1.13 ± 0.032 | 1.03 ± 0.016 | 0.976 ± 0.028 | 0.977 ± 0.022 | 0.98 ± 0.012 | 1.01 ± 0.02 | 1.01 ± 0.03 | 0.994 ± 0.021 | 0.97 ± 0.029
5 | ASKA SYNOVIAL | 1.17 ± 0.013 | 1.21 ± 0.12 | 1.26 ± 0.11 | 1.21 ± 0.093 | 1.17 ± 0.059 | 1.15 ± 0.1 | 1.13 ± 0.1 | 0.978 ± 0.14 | 1.09 ± 0.049 | 1.1 ± 0.062 | 1.13 ± 0.11 | 1.18 ± 0.029 | 1.08 ± 0.04 | 1.2 ± 0.03 | 1.1 ± 0.1 | 1.03 ± 0.029
6 | BT20 BREAST | 1.04 ± 0.052 | 1.13 ± 0.044 | 1.1 ± 0.1 | 1.06 ± 0.081 | 0.843 ± 0.11 | 0.894 ± 0.089 | 0.902 ± 0.076 | 0.741 ± 0.045 | 1.02 ± 0.047 | 1.09 ± 0.097 | 1.05 ± 0.069 | 1.2 ± 0.08 | 1.11 ± 0.012 | 1.19 ± 0.11 | 1.19 ± 0.1 | 1.17 ± 0.18
7 | BT549 BREAST | 1.1 ± 0.25 | 0.918 ± 0.16 | 0.996 ± 0.083 | 1.08 ± 0.11 | 0.738 ± 0.14 | 0.741 ± 0.14 | 0.774 ± 0.14 | 0.658 ± 0.27 | 1.05 ± 0.047 | 1.02 ± 0.024 | 1.07 ± 0.034 | 1.02 ± 0.2 | 1.22 ± 0.017 | 1.13 ± 0.16 | 1.12 ± 0.18 | 1.16 ± 0.14
8 | C33A CERVIX | 0.963 ± 0.082 | 1.01 ± 0.1 | 1.06 ± 0.051 | 1.1 ± 0.074 | 1.06 ± 0.067 | 1.14 ± 0.14 | 0.973 ± 0.059 | 0.827 ± 0.1 | 0.753 ± 0.12 | 0.696 ± 0.036 | 0.941 ± 0.021 | 0.885 ± 0.076 | 0.862 ± 0.071 | 0.919 ± 0.019 | 0.702 ± 0.0072 | 0.676 ± 0.068
9 | CADOES1 SOFT TISSUE | 0.951 ± 0.15 | 0.965 ± 0.065 | 0.974 ± 0.07 | 0.981 ± 0.084 | 1.11 ± 0.055 | 0.995 ± 0.1 | 1.01 ± 0.096 | 1.02 ± 0.032 | 0.946 ± 0.15 | 0.895 ± 0.081 | 0.994 ± 0.054 | 0.914 ± 0.15 | 0.858 ± 0.16 | 0.877 ± 0.034 | 0.976 ± 0.056 | 0.878 ± 0.17
10 | CAL51 BREAST | 0.954 ± 0.023 | 0.939 ± 0.028 | 1.02 ± 0.019 | 0.997 ± 0.069 | 1.01 ± 0.028 | 1.02 ± 0.027 | 0.922 ± 0.011 | 0.851 ± 0.026 | 1.01 ± 0.08 | 0.953 ± 0.025 | 1.04 ± 0.041 | 0.954 ± 0.062 | 1.06 ± 0.056 | 1.07 ± 0.022 | 0.944 ± 0.091 | 0.89 ± 0.015
